Read-outs that look alike come from different tables or passages of the source.
How the values were obtained:
RPS6K1 [1] = biological target: T1, RPS6K1 (Homo sapiens (Human), UniProt P23443); assay: High-throughput screening and IC50 determination for inhibition of RPS6K1 (FRET based assay by ThermoFisher); type: biochemical; conditions: dose response curve
Description: These three compounds were then subjected to IC50 value determination (dose response curve) using the same FRET based assay by ThermoFisher (Table 5).

RPS6K1 [2] = biological target: T1, RPS6K1; assay: as above; type: biochemical; conditions: table head prints 10 µM; text says 10 μM concentration
[3] = test system: HER2 positive breast cancer cell line SKBR3; assay: MTT assay growth inhibition; type: cell-based; conditions: for IC50: Homo sapiens; for growth inhibition: SKBR3, MTT, FIG. 1A
Description: (§1) Cell viability assays used the methods outlined in an earlier publication: Identification of New Mono/Dihydroxynaphthoquinone as Lead Agents that Inhibit the Growth of Refractive and Triple-negative Breast Cancer Cell lines. Schroeder, R.; Sfondouris, M.; Goyal, N.; Komati, R.; Weerathunga, A.; Gettridge, C.; Stevens, C. L. K.; Jones, F. E.; Sridhar, J. ACS Omega, 2019 Jun 19. 4(6):10610-10619.
(§2) RPS6K1 is known to play a critical role in several cancers including HER2 positive breast cancer, ER positive breast cancer, prostate cancer and small cell lung cancer. To verify whether RPS6K1 inhibitors of the instant disclosure could inhibit growth of these types of cancers, MTT assays were performed using the HER2 positive breast cancer cell line SKBR3, ER positive breast cancer cell line MCF7, and the prostate cancer cell line DU-145. The MTT assay is a colorimetric assay for assessing cell metabolic activity. NAD(P)H-dependent cellular oxidoreductase enzymes may, under defined conditions, reflect the number of viable cells present. These enzymes are capable of reducing the tetrazolium dye MTT 3-(4,5-dimethylthiazol-2-yl)-2,5-diphenyltetrazolium bromide to its insoluble formazan, which has a purple color.

[4] = test system: ER positive breast cancer cell line MCF7; assay: MTT assay growth inhibition; type: cell-based; conditions: FIG. 1B
Description: as §1, §2

[5] = test system: prostate cancer cell line DU-145; assay: MTT assay growth inhibition; type: cell-based; conditions: DU-145, MTT, FIG. 1C
Description: as §1, §2

[6] = SK-BR-3, SKBR3 breast cancer cell line, MTT, read-out: IC50 values of growth inhibition

T1 sequence (P23443 whole entry): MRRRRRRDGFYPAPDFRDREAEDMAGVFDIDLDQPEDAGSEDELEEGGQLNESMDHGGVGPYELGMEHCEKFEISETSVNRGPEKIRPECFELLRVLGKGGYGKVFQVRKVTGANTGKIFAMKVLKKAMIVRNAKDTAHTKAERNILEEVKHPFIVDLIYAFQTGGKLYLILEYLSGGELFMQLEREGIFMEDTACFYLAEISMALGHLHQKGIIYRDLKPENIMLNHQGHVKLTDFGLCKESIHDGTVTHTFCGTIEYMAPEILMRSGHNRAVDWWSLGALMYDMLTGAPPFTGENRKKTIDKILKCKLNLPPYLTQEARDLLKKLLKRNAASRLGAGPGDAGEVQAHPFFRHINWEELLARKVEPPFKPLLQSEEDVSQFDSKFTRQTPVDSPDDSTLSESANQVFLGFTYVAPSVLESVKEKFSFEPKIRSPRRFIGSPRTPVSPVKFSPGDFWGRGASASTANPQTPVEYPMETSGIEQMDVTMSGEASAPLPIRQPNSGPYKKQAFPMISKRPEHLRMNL

Row | Compound | IC50 (RPS6K1 [1]) | RPS6K1% inhibition at 10 µM compound concentration (RPS6K1 [2]) | IC50 [3, 6] | growth inhibition [3] | growth inhibition [4] | growth inhibition [5] | IC50 ([3]; SK-BR-3, read-out: IC50 values of growth inhibition)
1 | Nc1cc(NC(=O)c2ccccc2)cc2c1C(=O)NC2=O [RJ-19] | 3.48 µM | 71% | 3.3 µM | showed inhibition | not as effective |  | 
2 | Nc1cc(NC(=O)c2ccccc2Br)cc2c1C(=O)NC2=O [RJ-22] | > 2.78 µM | 86% | 1.9 µM | excellent growth inhibition | excellent growth inhibition | excellent growth inhibition | 
3 | Nc1cc(NC(=O)c2cc([N+](=O)[O-])cc([N+](=O)[O-])c2)cc2c1C(=O)NC2=O [RJ-28] | 2.56 µM | 79% |  | excellent growth inhibition | excellent growth inhibition | excellent growth inhibition | 4.7 µM
